From patent US20060110450A1, “Bilayer tablet of telmisartan and amlodipine” (Boehringer Ingelheim International GmbH, priority 2004, published 2006)

How the values were obtained:
[1] = Stability of amlodipine in contact with the basic telmisartan formulation; type: physicochemical; conditions: direct contact with excipients to be used in a telmisartan formulation (basic components, e.g. sodium hydroxide or meglumine)
Excerpt: There are various types of fixed dose combination dosage forms conceivable but it cannot be predicted which of these dosage forms best combines product stability, pharmacological efficacy, and reliable manufacture. Generally, combinations of two active pharmaceutical ingredients could be formulated as oral solid or oral liquid dosage forms such as tablets, capsules, coated or sugar-coated tablets, granules, oral solutions, emulsions or suspensions, syrups, and lozenges. In view of experiences with liquid dosage forms of telmisartan, oral liquid dosage forms are not considered a preferred embodiment according to the present invention. An instant release oral solid dosage form containing two drugs could be prepared by either making a powder mixture or a co-granulate of the two active ingredients with the necessary excipients. However, for a combination of telmisartan and amlodipine, this approach turns out not to result in a dosage form with sufficient product stability. […] The ester bonds in the amlodipine molecule appear to be subject to hydrolysis when exposed to an alkaline milieu. […]

[2] = physiological pH range of the gastrointestinal tract between pH 1 to 7; cited from earlier work

Row | Compound | stability of amlodipine [1] | solubility in aqueous systems [2]
1 | 3-ethyl-5-methyl-2-(2-aminoethoxymethyl)-4-(2-chlorophenyl)-1,4-dihydro-6-methyl-3,5-pyridinedicarboxylate [amlodipine] | not stable enough | –
2 | CCCc1nc2c(C)cc(-c3nc4ccccc4n3C)cc2n1Cc1ccc(-c2ccccc2C(=O)O)cc1 [Telmisartan, 4′-[2-n-propyl-4-methyl-6-(1-methylbenzimidazol-2-yl)benzimidazol-1-ylmethyl]biphenyl-2-carboxylic acid] | – | very poor solubility
